Here are results for two compounds from paper PMC9406419, “OATD-02 Validates the Benefits of Pharmacological Inhibition of Arginase 1 and 2 in Cancer” (Cancers, 2022).

Assay [1] deals with K562 tumours. In words: K562 xenograft model in athymic nude mice. Format: in vivo, mouse. How it is done: CT26 and K562 in vivo experiments were conducted at Molecure SA. All experimental procedures were approved by the 1st Local Ethics Committee in Warsaw (Poland). For the syngeneic CT26 model, 7–8-week old BALB/c females (n = 9–18 per group, BALB/cAnNCrl, Charles River Laboratories) were injected subcutaneously in the right flank with 5 × 10^5 CT26 cells. […] Anti-PD-L1 antibody (InVivoPlus anti-mouse PD-L1, clone 10F.9G2, BioXCell, lot 615416D1) was injected intraperitoneally at 2.5 mg/kg on days: 8, 10, 12, 14 and 16 post tumour cells inoculation. Control groups received vehicle (saline) or isotype antibody (InVivoPlus rat IgG2b, anti-KLH, BioXCell, lot 629816D1). For the xenograft K562 model, 7–8 week-old athymic nude mice (n = 8–11 per group, Crl:NU(NCr)-Foxn1^nu, Charles River Laboratories) or NK cell-deficient Fox Chase SCID Beige mice (n = 10–12 per group, CB17.Cg-Prkdc^scidLyst^bg-J/Crl, Charles River Laboratories) were injected subcutaneously in the right flank with 1 × 10^7 K562 cells. […] Tumour volume measured by a digital calliper (width × length × depth × π/6) was recorded three times per week. Animals were euthanized when tumours were necrotized or volume exceeded 2000 mm^3. Renca in vivo efficacy study was performed at Crown Biosciences Inc. (Taicang, China). […] Tumour volumes (length × width^2 × 0.5) were measured twice per week. […]

Assay [2] has as its system intracellular arginase in murine M2-polarized BMDMs. The assay can be described thus: Cell-based arginase inhibition assay in murine M2-polarized bone marrow-derived macrophages (urea in supernatant). The arrangement: species or system mouse. The note with it: 24 h incubation, 5 mM L-arginine, read-out: IC50, intracellular activity towards arginase-expressing immune cells. How it is done: The intracellular activity of OATD-02 arginase inhibitor was determined using murine M2-polarized macrophages. Bone marrow cells were collected from femur bones of C57BL/6 male mice. The cells suspended in DMEM medium (ThermoFisher, Waltham, MA, USA) supplemented with 5% FBS and 50 ng/mL M-CSF (PeproTech, Rocky Hill, NJ, USA) were poured through a 40 µm cell strainer and seeded into Petri dishes at 1 × 10^6 cells/mL for 2 days (37 °C, 5% CO2). Next, nonadherent cells were removed and fresh medium was added (DMEM, 5% FCS, 50 ng/mL M-CSF). The next day, the cells were dissociated using the CellStripper Dissociation Reagent (Corning, New York, NY, USA) and resuspended in the fresh DMEM medium containing 5% FCS, 50 ng/mL M-CSF, 20 ng/mL TGF-ß, and 30 ng/mL IL-4 (Biomibo, Warszawa, Poland). The cells were seeded into 96-well plates (64 × 10^3 cells/100 µL/well). […] Following 24 h incubation (37 °C, 5% CO2), the generated urea was detected by mixing 50 µL of the supernatant with 75 µL of the developing reagent (as described in the above section). Normalized absorbance values (515 nm) were fitted to a four-parameter equation using GraphPad Prism and IC50 values were determined. […] Normalized absorbance values (515 nm) were fitted to a four-parameter equation using GraphPad Prism and IC50 values were determined. […]

Read-outs that look alike come from different tables or passages of the source.

By IC50 is commonly meant the point on the concentration scale where inhibition reaches its midpoint. On to `CN(C)C[C@@H]1CC[C@@H](CCB(O)O)C[C@]1(N)C(=O)O` [OATD-02], for which the “final TGI, K562 tumor volumes, athymic nude mice” value in assay [1] (50 mg/kg PO BID from day 6, day 19 post-inoculation) is listed as 49%. Besides, in assay [2], the IC50 was found to be 1.1 µM.
`C[C@H](N)C(=O)N1C[C@H](CCCB(O)O)[C@](N)(C(=O)O)C1` [ref. ARGi, numidargistat, reference compound]: in assay [1] (100 mg/kg PO BID (Figure 5 legend) from day 6, day 19 post-inoculation), the “final TGI, K562 tumor volumes, athymic nude mice” value is 14%. Also, the IC50 in assay [2] (Mus musculus, BMDM) was 56.2 µM.
